From the NIST ThermoML archive (doi:10.1021/je020120h)

Experiments:
[1] = 298.15 K; 101.33 kPa; Liquid; Vibrating tube method
[2] = excess molar enthalpy (molar enthalpy of mixing); xn = mol fraction of the nth substance listed; conditions: 298.15 K, 101.3 kPa, Liquid, Flow calorimetry

COC(=O)OC [dimethyl carbonate]
Conditions	mass density [kg/m3]
[1]	1063.1

Cc1cccc(C)c1 [1,3-dimethylbenzene]
Conditions	mass density [kg/m3]
[1]	860

Cc1ccc(C)cc1 [1,4-dimethylbenzene] + COC(=O)OC
[2]
Conditions	excess molar enthalpy [kJ/mol]
x2 = 0.0504	0.123
x2 = 0.101	0.227
x2 = 0.1515	0.35
x2 = 0.202	0.428
x2 = 0.2529	0.499
x2 = 0.3012	0.555
x2 = 0.3512	0.607
x2 = 0.4022	0.642
x2 = 0.4515	0.663
x2 = 0.5016	0.674
x2 = 0.5524	0.67
x2 = 0.6013	0.652
x2 = 0.6507	0.623
x2 = 0.7004	0.581
x2 = 0.7503	0.523
x2 = 0.8003	0.456
x2 = 0.8502	0.368
x2 = 0.9018	0.26
x2 = 0.9511	0.138

Cc1cccc(C)c1 [1,3-dimethylbenzene] + COC(=O)OC
[2]
Conditions	excess molar enthalpy [kJ/mol]
x2 = 0.0502	0.125
x2 = 0.1006	0.242
x2 = 0.151	0.345
x2 = 0.2014	0.426
x2 = 0.2517	0.498
x2 = 0.3004	0.555
x2 = 0.3503	0.603
x2 = 0.4014	0.639
x2 = 0.4506	0.661
x2 = 0.5007	0.671
x2 = 0.5515	0.668
x2 = 0.6004	0.653
x2 = 0.6522	0.625
x2 = 0.7018	0.585
x2 = 0.7517	0.53
x2 = 0.8017	0.458
x2 = 0.8517	0.367
x2 = 0.9015	0.264
x2 = 0.9509	0.141

CCOC(=O)c1ccccc1 [ethyl benzoate] + COC(=O)OC
[2]
Conditions	excess molar enthalpy [kJ/mol]
x2 = 0.05	0.0579
x2 = 0.0999	0.119
x2 = 0.1497	0.173
x2 = 0.1991	0.226
x2 = 0.2482	0.268
x2 = 0.2984	0.305
x2 = 0.3495	0.337
x2 = 0.4012	0.36
x2 = 0.4503	0.377
x2 = 0.4998	0.385
x2 = 0.5495	0.387
x2 = 0.599	0.381
x2 = 0.6506	0.365
x2 = 0.6993	0.347
x2 = 0.7495	0.314
x2 = 0.8007	0.274
x2 = 0.8507	0.223
x2 = 0.8993	0.162
x2 = 0.9498	0.0864

CCc1ccccc1 [ethylbenzene]
Conditions	mass density [kg/m3]
[1]	862.5

CCOC(=O)c1ccccc1 [ethyl benzoate]
Conditions	mass density [kg/m3]
[1]	1041.3

Cc1ccc(C)cc1 [1,4-dimethylbenzene]
Conditions	mass density [kg/m3]
[1]	856.7

Cc1ccccc1C [1,2-dimethylbenzene] + COC(=O)OC
[2]
Conditions	excess molar enthalpy [kJ/mol]
x2 = 0.0511	0.111
x2 = 0.1006	0.231
x2 = 0.1503	0.333
x2 = 0.2016	0.39
x2 = 0.2513	0.445
x2 = 0.3024	0.521
x2 = 0.3519	0.575
x2 = 0.3998	0.615
x2 = 0.4514	0.639
x2 = 0.5013	0.65
x2 = 0.5519	0.642
x2 = 0.6007	0.624
x2 = 0.6502	0.595
x2 = 0.7002	0.552
x2 = 0.7504	0.501
x2 = 0.8008	0.434
x2 = 0.8513	0.352
x2 = 0.8998	0.253
x2 = 0.9501	0.135

CCc1ccccc1 [ethylbenzene] + COC(=O)OC
[2]
Conditions	excess molar enthalpy [kJ/mol]
x2 = 0.0501	0.0899
x2 = 0.1003	0.205
x2 = 0.149	0.267
x2 = 0.201	0.355
x2 = 0.2512	0.434
x2 = 0.2998	0.499
x2 = 0.3525	0.557
x2 = 0.4005	0.6
x2 = 0.4524	0.629
x2 = 0.5025	0.642
x2 = 0.5507	0.642
x2 = 0.602	0.63
x2 = 0.6513	0.605
x2 = 0.7011	0.565
x2 = 0.7512	0.513
x2 = 0.8012	0.446
x2 = 0.8513	0.362
x2 = 0.9012	0.261
x2 = 0.9509	0.14

Cc1ccccc1C [1,2-dimethylbenzene]
Conditions	mass density [kg/m3]
[1]	875
